Structures are written as SMILES. Active and inactive are the calls of the source. No rule for the calls is given here.

This assay has as its system cell-based VP16 transactivation luciferase luminescence. Kind of assay: VP16 transactivation luciferase reporter inhibitors, dose response, counter-screen for NR2E3 agonist project, cell-based, luminescence (AID 624395). (In general: Reporter assays use an easily measured gene product as a stand-in for the process of interest.)
`C#Cc1cccc(Nc2nc(NCc3ccccc3)nc3ccsc23)c1`: the IC50 was 12.8 µM (inactive).
Next, `CC(C(=O)N1CCN(c2ccc(Cl)cc2)CC1)c1ncc(C(F)(F)F)cc1Cl` (configuration not stated): 7.28 µM; `N=C1SCC(=O)N1c1ncc(Cc2cccc(Cl)c2)s1`: 4.78 µM; `OC[C@@H]1CN(Cc2ccc(-c3ccccc3)cc2)C[C@H](n2cnc3c(Nc4ccccc4)ncnc32)O1`: 5 µM.
Turning to `COc1ccc(NC(=O)/C(Cl)=C(/Cl)S(=O)Cc2ccccc2)cn1` (configuration not stated), the IC50 was 2.1 µM.
As for `Cc1cc(C(=O)CSc2nc3ccccc3[nH]2)c(C)n1CC1CCCO1` (configuration not stated), the concentration for half-maximal inhibition (IC50) was 7.32 µM.
Next, `CCOc1ccc(-c2nc(CSCC(=O)N3CCN(c4cccc(OC)c4)CC3)c(C)o2)cc1`: 3.02 µM; `CC(C)(C)C(=O)Nc1ccc(Sc2ccc([N+](=O)[O-])cc2)cc1`: 4.6 µM; `CC(Oc1ccc(Br)cc1)c1nc2c3ccccc3nc(=S)n2[nH]1` (configuration not stated): 4.33 µM.
To `Cc1ccnc(NC(=O)Cc2ccc(-c3ccccc3)cc2)c1` belongs > 39.8 µM (inactive); to `O=[N+]([O-])c1cc(CN2CCN(c3ccccc3)CC2)c(O)c2ncccc12`, > 39.8 µM (inactive).
For the molecule `CN1CCN(C(=O)c2cccc(-c3cnc4cnc(-c5ccccc5Oc5ccccc5)cn34)c2)CC1`, the IC50 was 12.7 µM (inactive).
Take `CC(C)c1ccc(-c2csc(NC(=O)c3cccs3)c2C(=O)O)cc1`: the IC50 is 12.1 µM (inactive).
With `C=C(C(=O)c1ccccc1)C(NC(C)(C)C)c1ccccc1` (configuration not stated), the IC50 is 5.27 µM.
Next, `CC1CCC/C=C/C2CC(O)CC2C(O)/C=C/C(=O)O1` (configuration not stated): 1.28 µM; `Cc1ccc(NC(=O)CNC(=O)c2cccc(C)c2)nc1`: 26 µM (inactive); `COc1ccccc1-n1c(=O)oc2ccc(Cl)cc2c1=O`: 7.67 µM.
Next, `O=c1cc(N2CCN(c3ccccc3)CC2)[nH]c(=O)n1C1CCCCC1`: > 39.8 µM (inactive); `C=CCn1c(C)cc(C(=O)COc2ccc(C)nc2[N+](=O)[O-])c1C`: 0.946 µM; `Cc1noc(C)c1S(=O)(=O)Nc1ccc(C(=O)N2CCN(c3ccc(Cl)cc3)CC2)cc1`: 7.09 µM.
Next, `O=C(OCCOc1ccc(Cl)cc1)c1cc(S(=O)(=O)N2CCCCC2)ccc1N1CCOCC1`: 8.66 µM.
Turning to `c1ccc(-c2cc(CSc3nc4ccccc4[nH]3)on2)cc1`, the IC50 is 2.69 µM.
Consider `Nc1nc(N)nc(-c2cc(O)ccc2O)n1`, for which the IC50 is 1.09 µM.
Next, `COCc1nnc(NC(=O)c2ccc(S(=O)(=O)N(CC(C)C)CC(C)C)cc2)o1`: 6.62 µM; `Cc1cnc(NC(=O)CN2CCN(c3ccccn3)CC2)s1`: 9.56 µM.
Next, `Cc1ccnc(NC(=O)CSc2cc(=O)n(C)c3ccccc23)c1`: 11 µM (inactive); `Cc1ccc(CN2CC(C(=O)Nc3ncc(C)s3)CC2=O)cc1` (configuration not stated): > 39.8 µM (inactive); `Cc1ccc(C#N)c(SCc2nnc(-c3ccc(Cl)cc3)o2)n1`: 0.0132 µM.
Turning to `COc1cc(OC)nc(-n2ncc(Br)c(Br)c2=O)n1`, the IC50 is 4.91 µM.
To `NC(=O)c1nn(-c2ccccc2)nc1NC(=O)CSc1nnnn1-c1ccc(Cl)cc1` belongs > 39.8 µM (inactive).
To `O=[N+]([O-])c1ccc(NS(=O)(=O)c2ccccc2)c(Cl)c1` belongs 4.38 µM.
Next, `CC(=O)NC(c1cccs1)c1cc([N+](=O)[O-])c2cccnc2c1O` (configuration not stated): 5.77 µM.

Usually IC50 stands for the point on the concentration scale where inhibition reaches its midpoint.

Source of the values: PubChem BioAssay AID624395 (The Scripps Research Institute Molecular Screening Center, 2012).
